What was measured:
wild-type T. gondii = assay: labeling of parasites with [3H]pyrimidines (pyrimidine salvage); type: cell-based, Toxoplasma gondii; conditions: parasites grown in host cells
Experimental: (§1) Initial experiments primarily involved an enzymatic analysis of drug resistant mutants and the incorporation of various pyrimidine analogs into T. gondii RNA and DNA as an indication of pyrimidine salvage when parasites were grown in either normal host or mutant host cells. All biochemical communications between the parasite and host cells cross the vacuolar membrane which is now known to contain “pores” that permit the passage of nucleobases ranging in molecular mass from 112 daltons up to 244 daltons. The size of the pores is estimated to be approximately 1500 daltons. A T. gondii mutant resistant to 5-fluorodeoxyuridine (FUDR-1) had lost uracil phosphoribosyltransferase (UPRT), an enzyme which is absent in normal host cells (Pfefferkorn (1978) Expt. Parasitol. 44:26-35). […] FUDR-1 mutant parasites were not labeled with [^3H]deoxyuridine. […] FUDR-1 mutant parasites were not labeled with [^3H]uridine. […] FUDR-1 (UPRT knock-out) parasites were not labeled with [^3H]uracil.
Similarly, since uracil only labels the parasite, due to the parasite UPRT, which is absent in the host, the pyrimidine pools of the parasite are also unavailable to the host. Thus, there is no detectable pyrimidine traffic detected between the parasite and host.

cps1 and cps2 mutants = assay: pyrimidine dependence of cps1 and cps2 replication and plaque formation; type: cell-based, Toxoplasma gondii; conditions: for rescue of growth rate / replication of cps1 and cps2: relatively low (thymine, thymidine: moderate) concentrations in medium
Excerpt: However, all of these mutants are somewhat “leaky” in that there was not an absolute growth (replication) dependence on uracil addition to the growth medium for replication. Each of these mutants grows at a moderate (½ of normal) growth rate for the first 2 days following infection of a host cell producing vacuoles that contained 16 to 32 parasites by 3 days post infection. In contrast, RH parasites are lysed out of their primary vacuoles at this time (3 days, >64 parasites). However, the cps mutants slow after 3 days and many parasites never (about ⅓) break out of their primary vacuole. If the primary vacuole breaks, a few parasites can be detected at the site of infection but the infection site always involves a small zone of infection that never forms a visible plaque in a standard 7 day plaque assay. To quantitate growth of these mutants, HFF flasks were inoculated with […] or cps2 parasites (about a multiplicity of infection (MOI) of 1 parasite per 20 HFF cells). After 2 hours of attachment and invasion (all of these mutants have normal attachment and invasion phenotypes as scored by counting percent entered parasites into host cells as a function of time post-inoculation), different concentrations of different pyrimidine compound was added to parallel infected HFF flasks. As a function of time post pyrimidine addition (t=0 hour) the number of parasites per vacuole was scored for 50 vacuoles as described by Fox et al. ((1999) supra). The number of parasite doublings was calculated based on 1 parasite entering each primary vacuole. Thus, 1 doubling=2 parasites per vacuole, 3 doublings=8 parasites per vacuole, and 5 doublings=32 parasites per vacuole. The pyrimidine dependence of cps1 and cps2 replication (doublings of parasites in the vacuole) was plotted graphically. […] The response to thymine and thymidine was additionally informative about the cause of the growth defect in cps1 and cps2. […] This is believed to be caused by the putative defect in the cps1 and cps2 mutants which is a reduced “pool” size of UMP. If UMP pools (ultimately used for RNA and DNA synthesis) are lowered it follows that a resulting decrease in TMP pools is expected since UMP is the precursor of TMP in T. gondii and all other apicomplexan parasites which normally lack TK activity. However, since cps1 and cps2 now express a TK activity carried into the parasite by the p53KOX3-1R plasmid, exemplified by sensitivity of these mutants to ganciclovir (specific to HSV TK), feeding parasites either thymine or thymidine is expected to increase TMP pools. Thus, it appears that moderate levels of thymine or thymidine partially rescue growth of cps1 and cps2 by restoring TMP pools. […] Since the parasite has no mechanism to convert TMP back to UMP there is still a defect in the UMP pool in cps1 and cps2 even with added thymine or thymidine and rescue is never complete. The ability of cps1 and cps2 mutants to form plaques on HFF monolayers in the standard 7 day assay paralleled the pyrimidine dependence of parasite replication in vacuoles.
The cps1 and cps2 mutants were inoculated intraperitoneally (i.p.) into balb/c mice to measure parasite virulence compared to virulent RH parasites. Both mutant cps1 and cps2 had equal virulence as RH parasites in balb/c mice (Jackson Labs), killing all mice within 10 days of i.p. inoculation (group size was four mice per parasite strain). Only 100 parasites (˜50 PFU) of each parasite strain was needed to kill all mice in each group. This pattern of virulence can be understood by re-examining the pyrimidine dependence of cps1 and cps2 growth. Uridine is believed to be the pyrimidine responsible for virulence of cps1 and cps2 in mice. Only 5 μM uridine completely rescues normal plaque size of cps1 and cps2 in vitro. Plasma concentrations of uridine in mice are approximately 5 to 10 μM.

cps1-1 and cps2-1 [1] = assay: pyrimidine rescue of cps1-1 and cps2-1 replication and plaque formation; type: cell-based, Toxoplasma gondii; conditions: for rescue of replication (doublings) of cps1-1 and cps2-1: 36-hour replication assay, HFF
Experimental: No pyrimidine compound at less than 25 μM could rescue plaque formation of cps1-1 or cps2-1. […] Uridine was quite poor at rescue of plaque formation in cps1-1 and cps2-1.
A more detailed growth response to pyrimidine, measured as parasite replications (doublings) was performed for cps1-1 and cps2-1 and compared to the results previously obtained for […]. […] Uridine rescue was poor, with a slow restoration of growth at very high amounts, >400 μM. Deoxyuridine rescue was significant, but again, full growth rate was not restored at any concentration of deoxyuridine. Rescue with uracil was robust, but only in a limited range of concentration. Full restoration of growth rate in cps1-1 and cps2-1 was possible only with uracil added between 200 and 400 μM. […] This phenotype can only be observed in T. gondii pyrimidine auxotroph mutants, not in wild-type parasites with intact de novo pyrimidine synthesis pathways.
The pyrimidine growth dependence of mutant cps1-1 on the pyrimidine salvage pathway was further documented in thymidine interference experiments. Mutant cps1-1 plaques well in 250 μM uracil or deoxyuridine, but not in 1000 μM thymidine. Since thymidine at 1000 μM is known to inhibit approximately 90% of the parasite nucleoside phosphorylase activity specific for cleavage of deoxyuridine (Iltzsch, (1993) J. Euk. Micro. 40:24-28), growth of cps1-1 was tested in combinations of 1000 μM thymidine and 250 μM uracil or 250 μM deoxyuridine. All pyrimidine salvage in T. gondii must pass through uracil and UPRT conversion of uracil to UMP. In contrast, thymidine has no effect on UPRT activity. Thus, if growth of cps1-1 were dependent on deoxyuridine supplementation then replication in this condition may be inhibited by co-supplementing with 1000 μM thymidine. […] Thus, when cps1-1 is grown in deoxyuridine the parasite strictly requires nucleoside phosphorylase activity to cleave deoxyuridine for growth. […] Thus, cps1-1 and cps2-1 rely strictly on pyrimidine salvage enzymes for growth and further, the HFF host cell in vitro cannot supply sufficient pyrimidines for growth of cps1-1 or cps2-1. […] Such potential inhibitors can only be identified using a pyrimidine auxotroph such as provided in the instant invention.
To assess reversion, 10^6 to 10^7 cps1-1 or cps2-1 parasites were periodically inoculated into HFF flasks supplemented with 5 μM uridine. This concentration of uridine is sufficient to rescue the parent strains (cps1 and cps2) of cps1-1 and cps2-1.

[2] = tested on: parasite nucleoside phosphorylase activity specific for cleavage of deoxyuridine; conditions: thymidine at 1000 μM; cited from earlier work
[3] = tested on: T. gondii carrying a single allele of TK from pDHFRm2m3-TK-TS; assay: plaque formation in ganciclovir, TK-transfected parasites; type: cell-based, Toxoplasma gondii
Excerpt: A modified hit and run mutagenesis was devised for knocking out the T. gondii gene encoding CPSII. First, a new plasmid vector was developed for positive and negative selection analogous to the plasmid described by Fox, et al. ((1999) Mol. Biochem. Parasitol. 98:93-103), except using the herpes simplex virus type I thymidine kinase (TK) gene instead of bacterial cytosine deaminase in the linker region of DHFR-TS. To create this plasmid two primers, a forward primer GGGAGATCTATGGCTTCGTACCCCGGCCATCAA (SEQ ID NO:10) and a reverse primer GGGGATCCTCAGTTAGCCTCCCCCATCTCCCG (SEQ ID NO:11) were used to PCR amplify, via standard conditions, the ganciclovir hypersensitive TK75 HSVTK allele (Black, et al. (1996) Proc. Natl Acad. Sci. USA 93:3525-3529). The forward primer contains a BglII site and the reverse primer a BamHI site. Following BamHI and BglII digestion of the ˜1130 bp PCR product, the TK allele was ligated into plasmid pDHFRm2m3-FLG-TS which was digested at the unique BamHI site in the FLAG epitope linker. The TK PCR primers were designed to join with pDHFRm2m3-FLG-TS to produce an in-frame insertion of TK between DHFR and TS in a plasmid called pDHFRm2m3-TK-TS, similar to previously described pDHFRm2m3-CD-TS plasmid (Fox, et al. (1999) supra). The trifunctional enzyme plasmid with TK was tested to confirm function of all three enzymes. […]

[4] = tested on: mutants cps1, cps2, cps3, cps4; assay: plaque formation in ganciclovir, cps mutants; type: cell-based, Toxoplasma gondii
cps1-1 and cps2-1 [5] = assay: drug sensitivity of cps1-1 and cps2-1 in replication and plaque assays; type: cell-based, Toxoplasma gondii; conditions: 10 μM
Excerpt: It is believed that the single recombination into the CPSII locus only partially disrupted expression of CPSII activity in cps1 and cps2. […] Cps1 and cps2 were thus utilized as the parent strain background in which to select a more highly attenuated pyrimidine auxotroph mutant. Both the cps1 and cps2 mutants express a TK allele which was inserted into the CPSII locus. […] Then, approximately 1-2×10^5 cps1 or cps2 parasites was inoculated into a 25 cm^2 HFF flask and selected negatively in the presence of 10 μM ganciclovir plus 200 μM uracil. This is 20 times the dose of ganciclovir necessary to completely block plaque formation of these mutants. […] The parasites which were growing in ganciclovir plus uracil were subcloned in ganciclovir and uracil (same conditions) and individual clones, cps1-1 and cps2-1, were identified from each parent, respectively, for further analysis. The cps1-1 and cps2-1 subclones were first tested for their sensitivity to pyrimethamine. The theory of negative selective in only ganciclovir is that a mutant that disrupts expression of the TK allele should simultaneously acquire sensitivity to pyrimethamine due to loss of the expression of the fused trifunctional DHFR-TK-TS transgene(s) inserted into the CPSII locus of cps1 and cps2.

FUDR-1 mutant parasites = assay: labeling of FUDR-1 (UPRT knock-out) parasites with [3H]pyrimidines; type: cell-based, Toxoplasma gondii
Experimental: as §1

tachyzoites = assay: uracil incorporation assay; type: cell-based, Toxoplasma gondii; conditions: [3H]uracil 25 μg/ml
Experimental: Experiments to evaluate the feasibility of constructing pyrimidine auxotrophs of T. gondii were performed. Pyrimidine auxotrophy relies on the ability to feed mutant parasites a pyrimidine nucleobase, such as uracil, in culture medium in amounts that will restore parasite growth to near normal levels. Experiments were therefore conducted to measure whether uracil incorporation into parasites in culture could account for normal replication and normal growth rates. In these experiments, biochemically saturating amounts of [^3H]uracil (25 μg/ml) were added to the growth medium and the quantitative incorporation of label into parasite RNA and DNA was determined over a four hour interval. It was calculated using known values that about 82% of the pyrimidines incorporated into parasite nucleic acids were derived from the uracil which was added to the growth medium as a supplement.
The uracil incorporation assay, results and calculation of uracil incorporation were carried out as follows. Parasites (2.09×10^7) were labeled for 4 hours in medium containing [^3H]uracil at 25 μg per ml or 0.223 μmole per ml, wherein the specific activity of uracil was 34.3 CPM per pmole (CPM=counts per minute). […] Based upon these parameters, it was concluded that 82% of incorporated pyrimidines originate from uracil when it is added to medium.

RH parasite = assay: plaque formation of RH in very high uracil; type: cell-based, Toxoplasma gondii; conditions: 2000 or 4000 μM uracil

Row | SMILES | incorporation of [3H]-labeled pyrimidine into wild-type parasites (wild-type T. gondii) | rescue of growth rate / replication of cps1 and cps2 (cps1 and cps2 mutants) | rescue of replication of cps1 and cps2 (cps1 and cps2 mutants; very high concentrations) | plaque formation of cps1-1 (cps1-1 and cps2-1 [1]; 1000 μM thymidine) | effect on deoxyuridine-dependent growth of cps1-1 (cps1-1 and cps2-1 [1]; 1000 μM thymidine plus 250 μM deoxyuridine) | effect on UPRT or uracil dependent growth of cps1-1 (cps1-1 and cps2-1 [1]; 1000 μM thymidine plus 250 μM uracil) | rescue of replication (doublings) of cps1-1 and cps2-1 (cps1-1 and cps2-1 [1]) | rescue of plaque formation of cps1-1 and cps2-1 (cps1-1 and cps2-1 [1]; plaque assay) | inhibition of parasite nucleoside phosphorylase activity [2] | ganciclovir concentration in which parasites do not form plaques [3] [μm] | ganciclovir concentration at which ability to form plaques is lost [4] [µM] | sensitivity of cps1-1 and cps2-1 to ganciclovir (cps1-1 and cps2-1 [5]) | labeling of FUDR-1 mutant parasites with [3H]pyrimidine (FUDR-1 mutant parasites) | actual incorporation (tachyzoites) | plaque formation of cps1-1 (cps1-1 and cps2-1 [1]; 250 μM supplement) | plaque formation of cps1-1, cps2-1, cps1 and cps2 (cps1-1 and cps2-1 [1]; 2000 or 4000 μM uracil) | uracil concentration above which growth rate is reduced significantly (cps1-1 and cps2-1 [1]; cps1-1, cps2-1) [µM] | rescue of plaque formation of cps1-1 and cps2-1 (cps1-1 and cps2-1 [1]; pyrimidine concentrations up to 200 μM) | effect on RH parasite plaques (RH parasite)
1 | Cc1cn([C@H]2C[C@H](O)[C@@H](CO)O2)c(=O)[nH]c1=O [thymidine] | did not incorporate | partially rescued | did not rescue replication | not | did block | did not affect | remained as a single non-replicated parasite | no response was detected | approximately 90% |  |  |  |  |  |  |  |  |  | 
2 | Nc1nc(O)c2ncn(COC(CO)CO)c2n1 [ganciclovir] |  |  |  |  |  |  |  |  |  | 0.5 | 0.5 | loss of sensitivity |  |  |  |  |  |  | 
3 | O=c1cc[nH]c(=O)[nH]1 [uracil] | incorporated into wild-type T. gondii | completely rescued |  |  |  |  | robust | significant growth rescue |  |  |  |  | not labeled | 0.00032 pmoles pyrimidine per tachyzoite per 4 hours | plaques well | do not even form plaques | > 500 | completely rescued | no effect
